Tests used:
[1] = test system: LPS-induced TNF-α production in human PBMC; assay: Inhibition of TNF-α production in human PBMC (in vitro); assay type: cell-based; conditions: LPS 10 μg/ml, 18 hours, TNF-α ELISA, read-out: Inhibitory effect on LPS-induced TNF-α production in human PBMC IC50 value
Protocol: Test Example 2 Inhibition of TNF-α Production in Human PBMC (In Vitro)
Test was carried out according to the method of Welker et al. (Int. Arch. Allergy Immunol., 109, 110-115 (1996).
Heparin-added blood collected from healthy volunteer with consent was underlayed with a specific gravity-separating solution (Lymphoprep; available from Daiichi Pure Chemicals Co., Ltd.), subjected to centrifugation (800×g, 25 minutes), and a mononuclear cell layer was recovered. The obtained mononuclear cells (human PBMC) were washed twice with PBS (available from SIGMA), and resuspended in 1% FCS-containing RPMI aqueous solution (available from GIBCO) so that the cells became 5×10^6 cells/mL. The thus obtained cell suspension was diluted 10-fold with 1% FCS-containing RPMI medium, DMSO (or the compound to be tested) with a final concentration of 0.5% was added thereto, and cultured at 37° C. in 5% CO2 for 1 hour. After that, LPS (derived from E. Coli 055:5B, available from SIGMA) solution prepared by PBS was added so that the final concentration thereof being 10 μg/ml, and cultivation was carried out for further 18 hours. After the cultivation, culture medium was subjected to centrifugation (800×g, 10 minutes), and a concentration of TNF-α produced in the supernatant was measured by an enzyme-linked immunosorbent assay (ELISA) kit (TNF-α ELISA Kit, available from R&D). The concentration (IC50 value) of the test compound for inhibiting 50% of TNF-α production was calcualted by using XL-fit (available from IDBS).

p38MAP kinase = molecular target: T1, p38MAP kinase (Homo sapiens, UniProt Q16539); assay: Enzyme inhibitory test against p38MAP kinase; assay type: biochemical; conditions: active type p38MAP kinase, EGFR peptide substrate, [γ-32P]ATP, 30° C. 30 minutes; read-out: p38MAP kinase inhibition IC50 value
T1 construct: purchased Stratagene (p38MAP kinase); Upstate (SKK/MKK6) #206145 (p38MAP kinase); #14-225 or #14-303 (SKK/MKK6)
T1 sequence (Q16539 whole entry): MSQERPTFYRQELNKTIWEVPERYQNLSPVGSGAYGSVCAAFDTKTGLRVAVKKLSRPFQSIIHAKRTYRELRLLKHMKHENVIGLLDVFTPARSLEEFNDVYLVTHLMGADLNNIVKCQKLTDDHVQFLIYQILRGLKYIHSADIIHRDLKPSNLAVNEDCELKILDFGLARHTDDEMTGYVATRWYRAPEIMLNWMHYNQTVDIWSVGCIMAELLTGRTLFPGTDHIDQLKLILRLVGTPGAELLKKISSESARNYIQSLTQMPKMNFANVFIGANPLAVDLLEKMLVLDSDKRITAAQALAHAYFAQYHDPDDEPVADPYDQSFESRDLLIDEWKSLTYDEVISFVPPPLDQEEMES
Protocol: Test Example 1 Enzyme Inhibitory Test Against p38MAP Kinase
(1) Preparatoin of Active Type p38MAP Kinase
An active type p38MAP kinase was prepared by incubation in a reaction solution (25 mM Tris-HCl pH 7.5, 5 mM β-glycerolphosphate, 2 mM DTT, 0.1 mM […], 10 mM MgCl2, 1 mM ATP) containing p38MAP kinase (Stratagene, #206145) and SKK/MKK6 (Upstate, #14-225 or #14-303) at 30° C. for 1 to 3 hours. This enzyme solution was diluted 5 to 10-fold with Stock Buffer (50 mM Tris-HCl pH 7.5, 0.1 mM EGTA, 0.2 mM Orthovanadate, 0.1% 2-ME, 10% glycerol, 0.03% Brij-35, 0.5 μM Microcystin), and preserved under freezing (−80° C.).
(2) Measurement of Inhibitory Activity of p38MAP Kinase
To 34 μL of a reaction solution (25 mM HEPES, pH 7.5, 10 mM Magnesium acetate) containing the active type p38MAP kinase prepared as mentioned above and a substrate (final concentration: […] EGFR; […]) was added 1 μL of DMSO, or a compound to be tested and dissolved in DMSO, then, the mixture was subjected to preincubation at 4° C. for 30 minutes. A reaction was started by adding 5 μL of an ATP solution (400 μM ATP, 1 μCi/μL [γ-^32P]ATP), and reacted at 30° C. for 30 minutes, and then, the reaction was stopped by adding 5 μL of 250 mM H3PO4. 25 μL of the reaction solution was placed on chromatography paper (Whatman, #P81), dried for about 2 minutes, and washed with 75 mM H3PO4. Water was removed by using 95% ethanol, it was transferred to a bial containing liquid scintillation cocktail (available from Nacalai Tesque), and radioactivity was measured. A concentration (IC50 value) of a compound to be tested necessary for inhibiting 50% of phosphrylation (^32P) of the substrate by the enzyme was calculated as compared to that non-treated by the compound to be tested by XL-fit (available from IDBS).

[2] = test system: rat adjuvant arthritis model; assay: Anti-inflammatory effect in rat adjuvant arthritis model; assay type: in vivo; conditions: LEW rats, 3 mg/Kg oral once a day
Protocol: Test Example 4 Anti-inflammatory Effect in Rat Adjuvant Arthritis Model
Heat-killed bacteria of Mycobacterium butyricum (available from Difco) were pulverized by agate mortar, and this was suspended in dry-heat sterilized liquid paraffin (available from Wako Pure Chemical Industries, Ltd.) so as to have 10 mg/ml, and subjected to ultrasonic wave treatment to obtain an adjuvant. 500 μg/50 μl/paw of the adjuvant was administered into right hind paw of LEW series rats (female, 7-weeks old, available from Charles River Japan, Inc.) under isoflurane (Forane, available from Abbott Japan) inhalation anesthesia to induce adjuvant arthritis. Also, liquid paraffin containing no dead bacteria was also administered in the same manner as mentioned above to prepare a non-treatment group.
The test compound was suspended in a 0.5% aqueous sodium carboxymethyl cellulose solution, or dissolved in distilled water for injection, and orally administered at a dose of 10 ml/kg once a day from the injected day of the adjuvant (0th day) to 27th day.
After 7th, 14th, 21st and 28th day from administration of the adjuvant, volumes of the right hind paw to which the adjuvant had been administered and of left hind paw to which no adjuvant had been administered were measured by a plethysmometer (TK-101CMP, UNICOM). An edema ratio was calculated from the following equation. Edema ratio (%)=[(volume of hind paw at the time of measurement)/(volume of hind paw before initiation of the test)−1]×100 Moreover, edema suppressive ratio based on the control group to which the vehicle was administered was calculated from the following equation. Edema suppressive ratio (%)=[1-{(edema ratio of test compound-administered group)−(edema ratio of non-treated group)}/{(edema ratio of control group)−(edema ratio of non-treatment group)}]×100 The test results are shown in Table 8.

[3] = test system: cytokine (IL-1β and TNF-α) induced IL-6 production; assay: Inhibition of IL-6 production in rat (in vivo); conditions: LEW rats, 3 mg/Kg oral, 1 hour before IL-1β/TNF-α i.v., serum IL-6 two hours later
Protocol: Test Example 3 Inhibition of IL-6 Production in Rat (In Vivo)
A cytokine mixed solution of IL-1β and TNF-α was intravenously injected to rats to induce production of IL-6. A mixed solution of IL-1β (available from R&D) (4 μg/ml) and TNF-α (available from R&D) (2 μg/ml) dissolved in PBS was administered to tail vein of LEW series rats (female, body weight: about 140 to 170 g, available from Charles River Japan, Inc.) fasted overnight with a ratio of 1 ml/kg of the body weight. Two hours later, blood was collected from the neck vein under ether anesthesia. The collected blood was centrifuged under the conditions of 20° C. and 10,000×g to separate serum. IL-6 concentration in the serum was measured by using an enzyme-linked immunosorbent assay (ELISA) kit (IL-6 ELISA KIT, available from R&D).
The test compound or the vehicle was orally administered with a dose of 10 ml/kg of the body weight before 1 hour of the injection of the cytokine mixed solution. The control group to which the vehicle was administered and the group of the compound to be tested were each 5 rats per group. An inhibitory ratio of the group of the compound to be tested based on control group was calculated.

Compound | IC50 [1] | IC50 (p38MAP kinase) | 28th day left hind paw edema suppressive ratio (%) @3 mg/Kg [2] | Rat cytokine induced IL-6 production inhibiting ratio (%) @3 mg/Kg [3] | left hind paw edema suppressive ratio (%) @3 mg/Kg ([2]; 21st day)
Nc1cc(-c2cn(-c3ccc(=O)[nH]n3)nc2-c2ccc(F)cc2)ccn1 [Example 2, 4-(2-Aminopyridin-4-yl)-3-(4-fluorophenyl)-1-(1,6-dihydro-6-oxopyridazin-3-yl)-1H-pyrazole] | 24 nM | 2.5 nM | 83 (28th day) % | – | –
Nc1cc(-c2cn(-c3ccc(=O)[nH]n3)nc2-c2ccccc2)ccn1 [Example 20, 4-(2-Aminopyridin-4-yl)-1-(1,6-dihydro-6-oxopyridazin-3-yl)-3-phenyl-1H-pyrazole] | – | – | – | 78% | –
Nc1cc(-c2cn(C3=NNC(=O)CC3)nc2-c2ccccc2)ccn1 [Example 49, 4-(2-Aminopyridin-4-yl)-1-(1,4,5,6-tetrahydro-6-oxopyridazin-3-yl)-3-phenyl-1H-pyrazole] | – | 7 nM | – | 84% | –
Nc1cc(-c2cn(-c3ccc4nncn4n3)nc2-c2ccccc2F)ccn1 [Example 42, 4-(2-Aminopyridin-4-yl)-3-(2-fluorophenyl)-1-([1,2,4]triazolo[4,3-b]pyridazin-6-yl)-1H-pyrazole] | – | 9.5 nM | – | 73% | –
O=C1CCC(n2cc(-c3ccnc(NCC(F)(F)F)c3)c(-c3ccc(F)cc3)n2)=NN1 [Example 56, 3-(4-Fluorophenyl)-1(1,4,5,6-tetrahydro-6-oxopyridazin-3-yl)-4-[2-(2,2,2-trifluoroethyl)aminopyridin-4-yl]-1H-pyrazole] | – | – | – | 85% | –
Fc1ccc(-c2nn(-c3ccc4nncn4n3)cc2-c2ccncc2)cc1 [Example 5, 3-(4-Fluorophenyl)-4-(pyridin-4-yl)-1-([1,2,4]triazolo[4,3-b]pyridazin-6-yl)-1H-pyrazole] | 4 nM | 25 nM | – | 92% | –
Nc1cc(-c2cn(-c3ccc4nncn4n3)nc2-c2ccc(F)cc2)ccn1 [Example 8, 4-(2-Aminopyridin-4-yl)-3-(4-fluorophenyl)-1-([1,2,4]triazolo[4,3-b]pyridazin-6-yl)-1H-pyrazole] | – | 7.4 nM | 79 (28th day) % | – | –
Fc1ccc(-c2nn(-c3ccc4nncn4n3)cc2-c2ccnc(NCC(F)(F)F)c2)cc1 [Example 16, 3-(4-Fluorophenyl)-1-([1,2,4]triazolo[4,3-b]pyridazin-6-yl)-4-[2-(2,2,2-trifluoroethyl)aminopyridin-4-yl]-1H-pyrazole] | – | 2 nM | – | 97% | –
CNc1cc(-c2cn(-c3ccc4nncn4n3)nc2-c2ccc(F)cc2)ccn1 [Example 13, 3-(4-Fluorophenyl)-4-(2-methylaminopyridin-4-yl)-1-([1,2,4]triazolo[4,3-b]pyridazin-6-yl)-1H-pyrazole] | – | 29 nM | – | – | 79 (21st day) %
